Data: US6468998B1, “Pyrrolidine compounds and medicinal utilization thereof” (Mitsubishi Pharma Corporation, priority 1998, dated 2002)

Legend:
5-HT2 receptor = target: T1, 5-HT2 receptor (Rattus norvegicus, UniProt P14842); experiment: Affinity for 5-HT2 receptor (binding with 3H-ketanserine); conditions: rat cerebral cortex crude synapse membrane, 37° C. 20 min
T1 construct: A crude synapse membrane was prepared from a freeze-dried rat cerebral cortex; from tissue; host or cells: rat cerebral cortex (crude synaptic membrane)
Protocol: Affinity for 5-HT2 Receptor (Binding with ^3H-ketanserine)
Preparation of a crude synapse membrane and a binding test were performed according to the method of Leysen J. E. et al. [Molecular Pharmacology, Vol. 21, p. 301 (1982)]. A crude synapse membrane was prepared from a freeze-dried rat cerebral cortex, and the membrane specimen and ^3H-ketanserine were incubated in the presence of a test compound at 37° C. for 20 min. After the completion of the reaction, the reaction mixture was immediately filtered by suction on a Whatmann GF/B filter (trademark), and the radioactivity on the filter was measured on a liquid scintillation counter. The amount of non-specific binding was measured in the presence of 10 μM mianserin. The 50% inhibition concentration (IC50) of the test compound was calculated by the nonlinear regression. In the same manner as above, a comparative test was performed using sarpogrelate as a control compound.

[1] = tested on: platelet rich plasma (PRP); experiment: Platelet aggregation suppressive action (collagen + 5-HT, platelet rich plasma); type: cell-based, Japanese white rabbit; conditions: Oryctolagus cuniculus, rabbit PRP, collagen + 3 μM 5-HT
Protocol: Platelet Aggregation Suppressive Action
Preparation of platelet rich plasma and a platelet aggregation test were performed according to the method of Born, G. V. R. et al. [Journal of Physiology, Vol. 168, p. 178 (1963)] as in the following. Blood was drawn from the carotid of male Japanese white rabbit with local anesthesia with xylocaine, using a syringe previously added with 3.8% sodium citrate in a 1/10 amount of the blood. This blood was centrifuged at 1000 round/min for 10 min at room temperature to give a platelet rich plasma (PRP) supernatant. This supernatant was further centrifuged at 3000 round/min for 10 min to give a platelet poor plasma (PPP) supernatant. Taking the measurement values of PRP and PPP as 0% aggregation and 100% aggregation, respectively, the platelet aggregation rate (%) was calculated. A test compound (3 μl) was added to 300 μl of PRP and the mixture was incubated at 37° C. for 5 min. Thereto were added, as aggregation inducing substances, collagen at a concentration prohibitive on aggregation by its single administration, and the final concentration of 3 μM of 5-HT, and the aggregation reaction was recorded for 7 min. The effect of the test compound was determined as percent suppression relative to the control group, using the maximum aggregation as an index. The 50% inhibition concentration (IC50) of the test compound was calculated by the nonlinear regression. In the same manner as above, a comparative experiment was conducted for the use of sarpogrelate and cilostazol, respectively as a control compound.

[2] = tested on: rat intermittent claudication model; experiment: Effect on rat intermittent claudication model (femoral artery ligation, treadmill walking distance); type: in vivo; conditions: for walking distance 8 days after administration (Δm): 100 mg/kg oral twice a day, change vs value before ligation, mean±SE; for walking distance at day 8 of ligation (in words): control compounds, 100 mg/kg per Table 2
Excerpt: Effect on Rat Intermittent Claudication Model
Rat was anesthetized and the right thigh was opened to expose femoral artery, which was ligated with a silk thread at a position nearest possible to the heart (upstream). In addition, a position about 1 cm from the ligation site to the periphery was ligated with a silk thread, making two ligature sites. Starting from the next day of preparation of a model to day 8 therefrom, a drug was orally administered twice a day for 8 days. However, the drug was orally administered only in the evening of the first day of administration and only in the morning of the final administration day. The walking distance was measured one day before model preparation (initial value), day 1, day 5 and day 8 with a treadmill apparatus. Using a gait test table without an angle of inclination, the conveyor advance speed was first set to 15 m/min, and the speed was increased every 5 min by 5 m/min until the animal failed walking three times, based on which the walking distance of the rat was measured. In the same manner as above, a comparative experiment was performed using sarpogrelate and cilostazol, respectively as a control compound.
In the Table, the values are mean±standard error (n=8 but n=6 only for sarpogrelate group).

[3] = tested on: lauric acid-induced peripheral arterial obstruction model; experiment: Rat lauric acid-induced peripheral arterial obstruction model (therapeutic effect); type: in vivo, Wistar rats
Protocol: Effect on Rat Lauric Acid-induced Peripheral Arterial Obstruction Model (Therapeutic Effect) Under anesthesia, lauric acid (0.75 mg/0.15 mL) was injected into the right femoral artery of Wistar rats (6-8 weeks of age). A drug was administered one day after the lauric acid injection. The drug was orally administered twice a day for 7 days. In the same manner as above, a comparative experiment was performed using sarpogrelate and cilostazol as a control compound. In the Table, the values are mean±standard error (n=11).

erythrocytes = experiment: Improvement effect of erythrocyte deformation (Nuclepore membrane filter method); type: in vivo, SHRSP (stroke prone spontaneously hypertensive rat); conditions: SHRSP
Protocol: Improvement Effect of Erythrocyte Deformation
Blood was drawn under anesthesia from SHRSP (stroke prone spontaneously hypertensive rat) loaded with 1% saline for 3 weeks, and the time necessary for 0.5 mL of blood to pass through a filter (pore size 5 μm, Nuclepore) was measured by the Nuclepore membrane filter method of Reid et al., based on which the volume (mL/min) of the erythrocytes passed was calculated. The volume of the erythrocytes passed was taken as an index of erythrocyte deformation. A drug was orally administered 1 hour before drawing the blood. In the same manner as above, a comparative experiment was performed using sarpogrelate as a control compound.
(§1) In the Table, the values are mean±standard error (n=6).

[4] = tested on: lauric acid-induced peripheral arterial obstruction model; experiment: Lauric acid-induced peripheral arterial obstruction model (preventive effect); type: in vivo, Wistar rats
Protocol: Effect on Lauric Acid-induced Peripheral Arterial Obstruction Model (Preventive Effect) Under anesthesia, lauric acid (0.75 mg/0.15 mL) was injected into the right femoral artery of Wistar rats (6-8 weeks of age). A drug was administered 1 hour before the lauric acid injection. The drug was orally administered twice a day for 8 days. In the same manner as above, a comparative experiment was performed using cilostazol as a control compound. In the Table, the values are mean±standard error (n=12).

[5] = tested on: collateral circulation model; experiment: Promotion of collateral circulation (femoral artery ligation, ADP-added platelet suspension, leg blood flow); type: in vivo, rat
Protocol: Promotion of Collateral Circulation
A collateral circulation model was prepared by rat femoral artery ligation, and a test drug was orally administered 7 days later. At 1 hour from the test drug administration, ADP-added platelet suspension (200 μM) was administered under anesthesia into the femoral artery (1 mL/kg), and changes in the leg blood flow were measured. In the same manner as above, a comparative experiment was performed using cilostazol as a control compound.
as §1

[6] = Effect on heart rate and blood pressure; type: in vivo, Wistar rat
Protocol: Effect on Heart Rate and Blood Pressure
A catheter was placed in the femoral artery of Wistar rat, and the blood pressure and heart rate were invasively monitored under no anesthesia or restriction. At 1 hour from the oral administration of the test drug, blood pressure and heart rate were taken. In the same manner as above, a comparative experiment was performed using cilostazol as a control compound.
In the Table, the values are mean±standard error (n=4).

[7] = 100 mg/kg oral twice a day from one day after lauric acid, score 0 normal to 6
[8] = 100 mg/kg oral twice a day, first dose 1 h before lauric acid, score 0 normal to 6
[9] = 100 mg/kg oral, 1 hour, after ADP-added platelet suspension
[10] = 100 mg/kg oral, 1 hour, no anesthesia or restriction

T1 sequence (P14842 whole entry): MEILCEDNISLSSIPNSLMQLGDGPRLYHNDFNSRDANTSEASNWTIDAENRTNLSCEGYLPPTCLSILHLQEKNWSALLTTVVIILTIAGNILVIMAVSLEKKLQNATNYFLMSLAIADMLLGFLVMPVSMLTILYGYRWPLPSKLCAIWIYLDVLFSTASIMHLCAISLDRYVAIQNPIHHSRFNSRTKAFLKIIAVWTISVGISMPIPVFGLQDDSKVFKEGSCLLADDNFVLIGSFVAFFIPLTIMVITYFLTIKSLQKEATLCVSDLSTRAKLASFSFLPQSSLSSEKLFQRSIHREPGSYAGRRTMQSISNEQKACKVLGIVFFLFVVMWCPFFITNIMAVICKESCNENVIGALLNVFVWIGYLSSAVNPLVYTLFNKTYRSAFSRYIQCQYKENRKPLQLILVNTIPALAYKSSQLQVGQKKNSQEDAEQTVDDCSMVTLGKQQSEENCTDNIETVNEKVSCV

In the case of `COc1cccc(CCc2ccccc2OCC(CN(C)C)OC(=O)CCC(=O)O)c1` (centres unmarked) [Sarpogrelate, reference compound], the IC50 (5-HT2 receptor) is reported as 27 nM, the IC50 [1] is reported as 260 nM and the “walking distance 8 days after administration (Δm)” value [2] is reported as −151.3 ± 35.4 m. The “walking distance at day 8 of ligation (in words)” value [2] was “increased the walking distance but the increase was not significant”, the “Lesion score 1 day later” value [3, 7] was 1.9 ± 0.2 and the “Lesion score 3 days later” value [3, 7] was 2.3 ± 0.3. For the same compound, the “Lesion score 5 days later” value [3, 7] was 2.1 ± 0.5, the “Lesion score 7 days later” value [3, 7] was 2.4 ± 0.6 and the “volume of the erythrocyte passed, % of the vehicle group” value (erythrocytes; 100 mg/kg) was 128%. For the same compound, the “Volume of erythrocytes passed” value (erythrocytes; 100 mg/kg oral 1 hour before drawing blood, 5 μm filter) was 1.01 ± 0.10 mL/min.
For `O=C1CCc2cc(OCCCCc3nnnn3C3CCCCC3)ccc2N1` [Cilostazol, reference compound], the IC50 [1] was 1380 nM, the “walking distance 8 days after administration (Δm)” value [2] was −149.8 ± 22.7 m and the “walking distance at day 8 of ligation (in words)” value [2] was “increased the walking distance but the increase was not significant”. For the same compound, the “Lesion score 1 day later” value [4, 8] was 1.8 ± 0.1, the “Lesion score 3 days later” value [4, 8] was 2.2 ± 0.2 and the “Lesion score 5 days later” value [4, 8] was 1.8 ± 0.4. For the same compound, the “Lesion score 7 days later” value [4, 8] was 2.2 ± 0.5, the “peripheral circulatory disturbance (in words)” value ([4]; 100 mg/kg, prior to the lauric acid injection) was “significantly reduced the peripheral circulatory disturbance” and the “Lesion score 3 days later” value [3, 7] was 1.5 ± 0.3. For the same compound, the “Lesion score 5 days later” value [3, 7] was 1.4 ± 0.4, the “Lesion score 7 days later” value [3, 7] was 1.3 ± 0.4 and the “peripheral circulatory disturbance (in words)” value ([3]; 100 mg/kg, from one day after the lauric acid injection) was “significantly reduced the peripheral circulatory disturbance”. For the same compound, the “decrease in leg blood flow caused by ADP-added platelet suspension (in words)” value ([5]; 100 mg/kg) was “suppressed a decrease in the blood flow on the ligation side only slightly”, the “Change in blood flow, control side” value [5, 9] was −27.0 ± 5.0 % and the “Change in blood flow, femoral artery ligation side” value [5, 9] was −63.3 ± 2.4 %. For the same compound, the “Change of blood pressure” value [6, 10] was 1.3 ± 1.3 mmHg, the “Change of heart rate” value [6, 10] was 43.8 ± 6.7 beats/min and the “influence on heart rate (in words)” value ([6]; 300 mg/kg as printed) was “increased the heart rate”.
With `Cc1ccccc1C(C(=O)N[C@H]1CCN(CCc2ccc(F)cc2)C1)c1ccccc1C` [Example 75, (S)-2,2-bis(2-methylphenyl)-N-(1-(2-(4-fluorophenyl)ethyl)pyrrolidin-3-yl)acetamide] the melting point was 108 to 110 °C.
